Results: patent publication US20170121344A1 (Siga Technologies, Inc., priority 2009, published 2017)
Where two headings read alike, the source gives them in different places.

Key:
[1] = system: Dengue-2 (Strain New Guinea C); test: Viral yield assay against Dengue-2 in Vero cells; assay type: cell-based, Dengue virus; details: Dengue virus, read-out: Activity (EC50 in μM) DENV-2
Method in brief: (§1)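 Infect Vero cells with virus (MOI 0.1), add compound or DMSO, incubate at 37° C, collect progeny at 48 hours post infection, then titrate on Vero cells to obtain EC50.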

[2] = system: DENV-4; test: Viral yield assay against DENV-4 in Vero cells; assay type: cell-based; details: Dengue virus
Method in brief: as §1

[3] = system: DENV-1; test: Viral yield assay against DENV-1 in Vero cells; assay type: cell-based; details: Dengue virus
Method in brief: as §1

[4] = system: DENV-3; test: Viral yield assay against DENV-3 in Vero cells; assay type: cell-based; details: Dengue virus
Method in brief: as §1

[5] = DENV2, viral yield assay, Vero cells, MOI 0.1, 48 hours post infection

Structure (SMILES)	EC50 [1, 5] [µM]	EC50 ([2]; DENV4, viral yield assay) [µM]	EC50 ([3]; DENV1, viral yield assay) [µM]	EC50 ([4]; DENV3, viral yield assay) [µM]	EC50 ([1]; DENV2, Vero, 48 h) [µM]	EC50 ([1]; DENV2, Vero cells) [µM]	EC50 ([2]; DENV4) [µM]	EC50 ([3]; DENV1) [µM]	EC50 ([4]; DENV3) [µM]
Nc1c(C(=O)Nc2ccc(Br)cc2)sc2nc(-c3ccc(Cl)cn3)ccc12 [Compound 349, 3-amino-N-(4-bromophenyl)-6-(5-chloro-2-pyridyl)thieno [2,3-b]pyridine-2-carboxamide]	< 5	< 5	< 5	< 5					
CC(=O)c1ccc2c(N)c(C(=O)Nc3ccc(C(F)(F)F)cc3)sc2n1 [Compound 483, 6-acetyl-3-amino-N-[4-(trifluoromethyl)phenyl]thieno[2,3-b] pyridine-2-carboxamide]	< 5	< 5	< 5	< 5					
COc1ccc(-c2ccc3c(N)c(C(=O)Nc4ccc(F)cc4)sc3n2)cc1 [Compound 491, 3-amino-N-(4-fluorophenyl)-6-(4-methoxyphenyl)thieno[2,3-b]pyridine-2-carboxamide]		< 5	> 25	5 to 25	< 5				
NCCNc1c(C(=O)Nc2nnc(-c3ccccc3)s2)sc2nc(Cl)ccc12 [Compound 300, 3-(2-aminoethylamino)-6-chloro-N-(5-phenyl-1,3,4-thiadiazol-2-yl)thieno[2,3-b]pyridine-2-carboxamide]						< 5	< 5	< 5	< 5
O=C(O)CC(=O)Nc1c(C(=O)Nc2cccc(C(F)(F)F)c2)sc2nc(-c3cccs3)ccc12 [Compound 302, 3-oxo-3-[[6-(2-thienyl)-2-[[3-(trifluoromethyl)phenyl]carbamoyl]thieno[2,3-b]pyridin-3-yl]amino]propanoic acid]						< 5	< 5	< 5	5 to 25
C=CCSc1nc2ccc(NC(=O)c3sc4nc(-c5cccc(OC)c5)ccc4c3N)cc2s1 [Compound 569, N-(2-allylsulfanyl-1,3-benzothiazol-6-yl)-3-amino-6-(3-methoxyphenyl)thieno [2,3-b]pyridine-2-carboxamide]	< 5	< 5	< 5	5 to 25					
CCNc1c(C(=O)Nc2cccc(C(F)(F)F)c2)sc2nc(-c3cccs3)ccc12 [Compound 321, 3-(ethylamino)-6-(2-thienyl)-N-[3-(trifluoromethyl)phenyl]thieno[2,3-b]pyridine-2-carboxamide]						< 5	< 5	< 5	< 5
Nc1c(C(=O)Nc2ccc3c(c2)OCCO3)sc2nc(-c3cccs3)ccc12 [Compound 415, 3-amino-N-(2,3-dihydro-1,4-benzodioxin-6-yl)-6-(2-thienyl)thieno[2,3-b] pyridine-2-carboxamide]	< 5	< 5	< 5	< 5					
Cc1ccc(-c2ccc3c(N)c(C(=O)Nc4ccc(Cl)cc4)sc3n2)cc1 [Compound 648, 3-amino-N-(4-chlorophenyl)-6-(p-tolyl) thieno[2,3-b]pyridine-2-carboxamide]	< 5	< 5	< 5	< 5					
CCOC(=O)c1ccc(NC(=O)c2sc3nc(-c4ccc(C)cc4)ccc3c2N)cc1 [Compound 638, ethyl 4-[[3-amino-6-(p-tolyl)thieno [2,3-b]pyridine-2-carbonyl]amino] benzoate]	< 5	< 5	< 5	< 5					
CC(=O)c1ccc(NC(=O)c2sc3nc(-c4cccs4)ccc3c2N)cc1 [Compound 429, N-(4-acetylphenyl)-3-amino-6-(2-thienyl)thieno[2,3-b]pyridine-2-carboxamide]	< 5	< 5	< 5	< 5					
O=C(O)CCC(=O)Nc1c(C(=O)Nc2cccc(C(F)(F)F)c2)sc2nc(-c3cccs3)ccc12 [Compound 311, 4-oxo-4-[[6-(2-thienyl)-2-[[3-(trifluoromethyl)phenyl]carbamoyl]thieno[2,3-b]pyridin-3-yl]amino]butanoic acid]						< 5	< 5	< 5	< 5
COc1cccc(-c2ccc3c(N)c(C(=O)Nc4cccc(Cl)c4)sc3n2)c1 [Compound 561, 3-amino-N-(3-chlorophenyl)-6-(3-methoxyphenyl)thieno[2,3-b]pyridine-2-carboxamide]	< 5	< 5	< 5	< 5					
COc1ccc(NC(=O)c2sc3nc(-c4cccs4)ccc3c2N)cc1 [Compound 427, 3-amino-N-(4-methoxyphenyl)-6-(2-thienyl)thieno[2,3-b]pyridine-2-carboxamide]	< 5	< 5	< 5	< 5					
CC(F)(F)c1ccc(NC(=O)c2sc3nc(-c4ccc(Cl)cc4)ccc3c2N)cc1 [Compound 338, 3-amino-6-(4-chlorophenyl)-N-[4-(1,1-difluoro-ethyl)phenyl] thieno[2,3-b] pyridine-2-carboxamide]	< 5	< 5	< 5	< 5					
COc1ccc(-c2ccc3c(N)c(C(=O)Nc4ccc(Br)c(C(F)(F)F)c4)sc3n2)cc1OC [Compound 583, 3-amino-N-[4-bromo-3-(trifluoromethyl)phenyl]-6-(3,4-dimethoxyphenyl)thieno [2,3-b]pyridin-2-carboxamide]	< 5	< 5	< 5	< 5					
Nc1c(C(=O)Nc2ccc(OC(F)(F)F)cc2)sc2nc(-c3cccc(OC(F)F)c3)ccc12 [Compound 339, 3-amino-6-[3-(difluoromethoxy)phenyl]-N-[4-(trifluoromethoxy)phenyl]thieno[2,3-b]pyridine-2-carboxamide]	< 5	< 5	< 5	< 5					
Nc1c(C(=O)Nc2nnc(-c3ccccc3)s2)sc2nc3c(cc12)C(=O)CCCC3 [Compound 328]	< 5	< 5	< 5	5 to 25					
O=C(Nc1c(C(=O)Nc2nnc(-c3ccccc3)s2)sc2nc3c(cc12)CCCCC3)c1ccccc1 [Compound 285, 3-benzamido-N-(5-phenyl-1,3,4-thiadiazol-2-yl)-6,7,8,9-tetrahydro-5H-cyclohepta[b]thieno[3,2-e]pyridine-2-carboxamide]						< 5	< 5	< 5	< 5
COc1ccc(NC(=O)c2sc3nc(-c4ccc(F)cc4)ccc3c2N)cc1 [Compound 535, 3-amino-6-(4-fluorophenyl)-N-(4-methoxyphenyl)thieno[2,3-b]pyridine-2-carboxamide]	< 5	< 5	< 5	< 5					
Nc1c(C(=O)Nc2ccc(OC(F)(F)F)cc2)sc2nc(-c3cccc(OC(F)(F)F)c3)ccc12 [Compound 332, 3-amino-6-[3-(trifluoromethoxy)phenyl]-N-[4-(trifluoromethoxy)phenyl]thieno[2,3-b]pyridine-2-carboxamide]	< 5	< 5	< 5	< 5					
Nc1c(C(=O)Nc2ccc(C(F)(F)F)cc2)sc2nc(-c3cccs3)ccc12 [Compound 459, 3-amino-6-(2-thienyl)-N-[4-(trifluoromethyl)phenyl]thieno[2,3-b] pyridine-2-carboxamide]	< 5	< 5	< 5	< 5					
COc1ccc(Cl)cc1NC(=O)c1sc2nc(-c3ccc(OC)c(OC)c3)ccc2c1N [Compound 532, 3-amino-N-(5-chloro-2-methoxy-phenyl)-6-(3,4-dimethoxyphenyl)thieno[2,3-b] pyridine-2-carboxamide]	< 5	< 5	< 5	< 5					
COc1ccc(-c2ccc3c(N)c(C(=O)Nc4ccc(Cl)cc4F)sc3n2)cc1OC [Compound 534, 3-amino-N-(4-chloro-2-fluoro-phenyl)-6-(3,4-dimethoxyphenyl)thieno[2,3-b] pyridine-2-carboxamide]	< 5	< 5	< 5	< 5					
COc1cccc(-c2ccc3c(N)c(C(=O)Nc4ccccc4C(F)(F)F)sc3n2)c1 [Compound 449, 3-amino-6-(3-methoxyphenyl)-N-[2-(trifluoromethyl)phenyl]thieno[2,3-b] pyridine-2-carboxamide]	< 5	< 5	< 5	< 5					
Nc1c(C(=O)Nc2ccc(C(F)(F)F)cc2)sc2nc(-c3ccc(F)cc3)ccc12 [Compound 455, 3-amino-6-(4-fluorophenyl)-N-[4-(trilfuoromethyl)phenyl]thieno[2,3-b] pyridine-2-carboxamide]	< 5	5 to 25	< 5	< 5					
COC(=O)c1ccc(NC(=O)c2sc3nc(-c4ccc(Cl)cc4)ccc3c2N)cc1 [Compound 645, methyl 4-[[3-amino-6-(4-chlorophenyl)thieno[2,3-b]pyridine-2-carbonyl]amino]benzoate]	< 5	< 5	< 5	< 5					
CN(C)CC(=O)Nc1c(C(=O)Nc2ccc(OC(F)(F)F)cc2)sc2nc3c(cc12)CN(C)CC3 [Compound 312, 3-[[2-(dimethylamino)acetyl]amino]-6-methyl-N-[4-(trifluoromethoxy)phenyl]-7,8-dihydro-5H-thieno[2,3-b][1,6]naphthyridine-2-carboxamide]						< 5	< 5	< 5	< 5
